# Experimental data: patent EP4799646A1, “COMPOSITION AND METHOD FOR INCREASING BIOAVAILABILITY OF ACTIVE INGREDIENT” (Everfront Biotech Inc., priority 2023, dated 2025)
# Like-named read-outs stand apart in the source and are kept apart here.
# Tests used:
# [1] = Appearance (phase separation) of compositions after preparation; solubility of BP in sesame oil; format: physicochemical; settings: concluded from absence of phase separation in Compositions 1 to 4
# Experimental: In a glass bottle, components were mixed with the dosage ratios shown in Table 1 to provide a mixture, and the mixture was rapidly stirred with a magnetic stirrer for 20 minutes to form a homogeneous liquid, thereby respectively preparing Compositions 1 to 4. After removing the magnetic stirrer, the glass bottle was tightly sealed and its appearance was observed and photographed, the results are shown in FIG. 1. Table 1: Volume Percentages of Composition in Compositions 1 to 4.
# [2] = tested on: pancreatic cancer cell lines Mia-PaCa2; test: MTT assay, IC50 against pancreatic cancer cells (cytotoxicity study II); format: cell-based; settings: Homo sapiens
# Experimental: The culture medium in each well of the cell culture plates was removed, and MTT reagent was added (to reach a final concentration of 0.5 mg/mL in each well). The plates were then placed in a 37°C, 5% CO2 incubator for 2 to 4 hours to form purple needle-like formazan crystals. Subsequently, the solution was aspirated, and 500 µL of dimethyl sulfoxide (DMSO) was added to each well. After shaking with a shaker for 5 to 10 minutes to completely dissolve the purple crystals, the absorbance at a wavelength of 570 or 595 nm was measured using an ELISA reader. The survival rate of the cells was calculated based on the absorbance, with the blank group as the baseline (the survival rate of the blank group was set to 100%). The data of the experimental group serum collected 2 hours after oral administration of the soft capsules are shown in FIG. 7; the data of the experimental group serum collected at 1, 4, 8, or 24 hours are shown in FIG. 8.
# Cell cultures in this example were all conducted in an environment of 95% relative humidity, 5% CO2, and 37°C.
# Pancreatic cancer cell lines Mia-PaCa2 were grouped and respectively cultured in 96-well cell culture plates for 24 hours using the following culture media: • 1. "Z-BP" Group: Mia-PaCa2 cell culture medium supplemented with Z-BP. • 2. […]
structure (smiles),measurement,setting,value
"CCCC=C1OC(=O)c2ccccc21 [BP, n-butylidenephthalide]",solubility in sesame oil,[1],good solubility
"CCC/C=C1\OC(=O)C2=C1CCC=C2 [LG, Ligustilide]",IC50,"[2]; MIA PaCa-2, Mia-PaCa2 cells, 24 hours, MTT, oil groups: active mixed with oil in equal proportions, read-out: IC50",44.1 µg/mL
"CCC/C=C1\OC(=O)c2ccccc21 [Z-BP, (Z)-n-butylidenephthalide]",IC50,"[2]; MIA PaCa-2, 24 h",63.8 µg/mL
